Reference: patent US11932601B2, “Immunoregulatory agents” (FLEXUS BIOSCIENCES, INC., priority 2014, dated 2024)
pIC50: −log10 of the molar value.

Molecular target: T1, human IDO1 (Homo sapiens, UniProt P14902)
T1 construct: expressed in transfected cells
Assay: HEK293 cells stably expressing human IDO1, IDO inhibition assay (kynurenine, Ehrlich reagent, absorbance 490 nm)
Format: cell-based
Settings: 20 hours incubation, 500 nM reference standard = 100% inhibition, read-out: HEK Human IDO-1 Biological Activity (IC50)
Experimental: HEK293 cells were transfected with a pCDNA-based mammalian expression vector harboring human IDO1 cDNA (NM 002164.2) by electroporation. They were cultured in medium (DMEM with 10% FBS) containing 1 mg/ml G418 for two weeks. Clones of HEK293 cells that stably expressed human IDO1 protein were selected and expanded for IDO inhibition assay.
The human IDO1/HEK293 cells were seeded at 10,000 cells per 50 μL per well with RPMI/phenol red free media contains 10% FBS in a 384-well black wall clear bottom tissue culture plate (Matrix Technologies LLC) 100 nL of certain concentration of compound was then added to each well using ECHO liquid handling systems. The cells were incubated for 20 hours in 37° C. incubator with 5% CO2.
The compound treatments were stopped by adding Trichloroacetic Acid (Sigma-Aldrich) to a final concentration at 0.2%. The cell plate was further incubated at 50° C. for 30 minute. The equal volume supernatant […] and 0.2% (w/v) Ehrlich reagent (4-dimethylaminobenzaldehyde, Sigma-Aldrich) in glacial acetic acid were mixed in a new clear bottom 384-well plate. This plate was then incubated at room temperature for 30 minute. The absorbance at 490 nm was measured on Envision plate reader.

T1 sequence (P14902 whole entry): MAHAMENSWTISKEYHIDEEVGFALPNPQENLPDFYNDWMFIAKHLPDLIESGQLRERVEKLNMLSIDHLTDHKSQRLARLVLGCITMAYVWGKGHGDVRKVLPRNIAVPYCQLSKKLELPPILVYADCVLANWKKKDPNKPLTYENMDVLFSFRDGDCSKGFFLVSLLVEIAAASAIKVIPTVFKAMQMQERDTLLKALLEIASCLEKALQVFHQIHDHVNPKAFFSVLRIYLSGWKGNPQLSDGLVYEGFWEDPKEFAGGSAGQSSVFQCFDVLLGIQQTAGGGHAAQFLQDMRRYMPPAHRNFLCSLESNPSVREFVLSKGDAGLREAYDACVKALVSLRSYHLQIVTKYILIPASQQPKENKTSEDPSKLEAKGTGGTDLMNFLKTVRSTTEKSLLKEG

Row | SMILES | pIC50
1 | Cc1cnccc1C1CCC(C(C)C(=O)Nc2ccc(Cl)cc2)CC1 (single isomer, unassigned) [Example 313a, N-(4-chlorophenyl)-2-(4-(3-methylpyridin-4-yl)cyclohexyl) propanamide] | > 7.30
2 | Cc1cnccc1C1CCC(C(C)C(=O)Nc2ccc(Cl)cc2)CC1 (single isomer, unassigned) [Example 313b, N-(4-chlorophenyl)-2-(4-(3-methylpyridin-4-yl)cyclohexyl) propanamide] | > 7.30
3 | Cc1cnccc1C1CCC(C(C)C(=O)Nc2ccc(Cl)cc2)CC1 (single isomer, unassigned) [Example 313c, N-(4-chlorophenyl)-2-(4-(3-methylpyridin-4-yl)cyclohexyl) propanamide] | < 6.60
4 | Cc1cnccc1C1CCC(C(C)C(=O)Nc2ccc(Cl)cc2)CC1 (single isomer, unassigned) [Example 313d, N-(4-chlorophenyl)-2-(4-(3-methylpyridin-4-yl)cyclohexyl) propanamide] | > 7.30
5 | Cc1cnccc1C1CCC(C(C)C(=O)Nc2ccc(Cl)cc2)CC1 (single isomer, unassigned) [Example 313e, N-(4-chlorophenyl)-2-(4-(3-methylpyridin-4-yl)cyclohexyl) propanamide] | < 6.60
6 | Cc1cnccc1C1CCC(C(C)C(=O)Nc2ccc(Cl)cc2)CC1 (single isomer, unassigned) [Example 313f, N-(4-chlorophenyl)-2-(4-(3-methylpyridin-4-yl)cyclohexyl) propanamide] | > 7.30
7 | CC(C(=O)Nc1ccc(Cl)cc1)C1CCC(c2cc(-c3ccc(F)cc3)ncn2)CC1 (single isomer, unassigned) [Example 314b, N-(4-chlorophenyl)-2-(4-(6-(4-fluorophenyl)pyrimidin-4-yl)cyclohexyl) propanamide] | > 6.60
8 | CC(=O)Nc1cc(C2CCC(C(C)C(=O)Nc3ccc(Cl)cc3)CC2)ccn1 (single isomer, unassigned) [Example 315a, 2-(4-(2-acetamidopyridin-4-yl)cyclohexyl)-N-(4-chlorophenyl) propanamide] | > 6.60
9 | CC(=O)Nc1cc(C2CCC(C(C)C(=O)Nc3ccc(Cl)cc3)CC2)ccn1 (single isomer, unassigned) [Example 315b, 2-(4-(2-acetamidopyridin-4-yl)cyclohexyl)-N-(4-chlorophenyl) propanamide] | > 7.30
10 | CC(C(=O)Nc1ccc(Cl)cc1)C1CCC(c2ccnnc2)CC1 (single isomer, unassigned) [Example 316a, N-(4-chlorophenyl)-2-(4-(pyridazin-4-yl)cyclohexyl) propanamide] | < 6.60
11 | CC(C(=O)Nc1ccc(Cl)cc1)C1CCC(c2ccnnc2)CC1 (single isomer, unassigned) [Example 316b, N-(4-chlorophenyl)-2-(4-(pyridazin-4-yl)cyclohexyl) propanamide] | < 6.60
12 | CC(C(=O)Nc1ccc(Cl)cc1)C1CCC(c2ccnnc2)CC1 (single isomer, unassigned) [Example 316c, N-(4-chlorophenyl)-2-(4-(pyridazin-4-yl)cyclohexyl) propanamide] | < 6.60
13 | CC(C(=O)Nc1ccc(Cl)cc1)C1CCC(c2ccnnc2)CC1 (single isomer, unassigned) [Example 316d, N-(4-chlorophenyl)-2-(4-(pyridazin-4-yl)cyclohexyl) propanamide] | < 6.60
14 | CC(C(=O)Nc1ccc(Cl)cc1)C1CCC(c2cccc(-c3ccccc3)c2)CC1 (single isomer, unassigned) [Example 317a, 2-(4-([1,1′-biphenyl]-3-yl)cyclohexyl)-N-(4-chlorophenyl) propanamide] | > 7.30
15 | CC(C(=O)Nc1ccc(Cl)cc1)C1CCC(c2cccc(-c3ccccc3)c2)CC1 (single isomer, unassigned) [Example 317b, 2-(4-([1,1′-biphenyl]-3-yl)cyclohexyl)-N-(4-chlorophenyl) propanamide] | > 7.30
16 | CC(C(=O)Nc1ccc(Cl)cc1)C1CCC(c2cccc(-c3ccccc3)c2)CC1 (single isomer, unassigned) [Example 317c, 2-(4-([1,1′-biphenyl]-3-yl)cyclohexyl)-N-(4-chlorophenyl) propanamide] | < 6.60

Row | SMILES | pIC50
17 | CC(C(=O)Nc1ccc(Cl)cc1)C1CCC(c2cccc(-c3ccccc3)c2)CC1 (single isomer, unassigned) [Example 317d, 2-(4-([1,1′-biphenyl]-3-yl)cyclohexyl)-N-(4-chlorophenyl) propanamide] | < 6.60
18 | CC(C(=O)Nc1ccc(Cl)cc1)C1CCC(c2ccncc2F)CC1 (single isomer, unassigned) [Example 318b, N-(4-chlorophenyl)-2-(4-(3-fluoropyridin-4-yl)cyclohexyl) propanamide] | > 7.30
19 | CC(C(=O)Nc1ccc(Cl)cc1)C1CCC(c2ccncc2F)CC1 (single isomer, unassigned) [Example 318c, N-(4-chlorophenyl)-2-(4-(3-fluoropyridin-4-yl)cyclohexyl) propanamide] | < 6.60
20 | CC(C(=O)Nc1ccc(Cl)cc1)C1CCC(c2ccncc2F)CC1 (single isomer, unassigned) [Example 318d, N-(4-chlorophenyl)-2-(4-(3-fluoropyridin-4-yl)cyclohexyl) propanamide] | > 6.60
21 | CC(C(=O)Nc1ccc(Cl)cc1)C1CCC(c2ccncc2F)CC1 (single isomer, unassigned) [Example 318e, N-(4-chlorophenyl)-2-(4-(3-fluoropyridin-4-yl)cyclohexyl) propanamide] | > 7.30
22 | Cc1nccc(O[C@H]2CC[C@H](C(C)C(=O)Nc3ccc(Cl)cc3)CC2)c1Cl (single isomer, unassigned) [Example 320, rac-2-((trans)-4-((3-chloro-2-methylpyridin-4-yl)oxy)cyclohexyl)-N-(4-chlorophenyl)propanamide] | > 7.30
23 | C[C@H](C(=O)Nc1ccc(Cl)cc1)[C@H]1CC[C@H](Oc2ccnc(C(F)(F)F)c2)CC1 (single isomer, unassigned) [Example 324a] | > 6.60
24 | C[C@@H](C(=O)Nc1ccc(Cl)cc1)[C@H]1CC[C@H](Oc2ccnc(C(F)(F)F)c2)CC1 (single isomer, unassigned) [Example 324b] | < 6.60
25 | COc1cc(C2CCC(C(C)C(=O)Nc3ccc(Cl)cc3)CC2)ccn1 (stereo not drawn) [Example 307a, Cis- or trans-N-(4-Chlorophenyl)-2-(4-(2-methoxypyridin-4-yl)cyclohexyl)propanamide] | > 7.30
26 | COc1cc(C2CCC(C(C)C(=O)Nc3ccc(Cl)cc3)CC2)ccn1 (stereo not drawn) [Example 307b, Cis- or trans-N-(4-Chlorophenyl)-2-(4-(2-methoxypyridin-4-yl)cyclohexyl)propanamide] | > 7.30
27 | CC(C(=O)Nc1ccc(Cl)cc1)C1CCC(c2cc(-c3ccc(F)cc3)ncn2)CC1 (centres unmarked) [Example 314a, N-(4-chlorophenyl)-2-(4-(6-(4-fluorophenyl)pyrimidin-4-yl)cyclohexyl) propanamide] | > 6.60
28 | CC(C(=O)Nc1ccc(Cl)cc1)C1CCC(c2ccncc2F)CC1 (centres unmarked) [Example 318a, N-(4-chlorophenyl)-2-(4-(3-fluoropyridin-4-yl)cyclohexyl) propanamide] | > 7.30
29 | Cc1nccc(C2CCC(C(C)C(=O)Nc3ccc(Cl)cc3)CC2)n1 (centres unmarked) [Example 319a, N-(4-chlorophenyl)-2-(4-(2-methylpyrimidin-4-yl)cyclohexyl) propanamide] | > 6.60
30 | Cc1nccc(C2CCC(C(C)C(=O)Nc3ccc(Cl)cc3)CC2)n1 (centres unmarked) [Example 319b, N-(4-chlorophenyl)-2-(4-(2-methylpyrimidin-4-yl)cyclohexyl) propanamide] | < 6.60
31 | CC1(CC(=O)Nc2ccc(Cl)cc2)CCN(c2ccnc(C(F)(F)F)c2)CC1 [Example 321, N-(4-Chlorophenyl)-2-(4-methyl-1-(2-(trifluoromethyl)pyridin-4-yl)piperidin-4-yl)acetamide] | > 6.60
32 | CC1(CC(=O)NC2(C)CCCCC2)CCN(c2ccnc(C(F)(F)F)c2)CC1 [Example 322, 2-(4-Methyl-1-(2-(trifluoromethyl)pyridin-4-yl)piperidin-4-yl)-N-(1-methylcyclohexyl)acetamide] | < 6.60
